Test results: PMC4527731, “Calcineurin Undergoes a Conformational Switch Evoked via Peptidyl-Prolyl Isomerization” (PLoS ONE, 2015)

B1: RCAN3-derived PxIxIT-containing peptide (amino acids 183–203) (peptide)
peptide: Ac-KYELHAGTESTPSVVVHVCES-NH2
notes: source: synthetic peptide, bought: Peptide 2.0 Company

What was measured:
[1] = tested on: Flag-CNA 2–389 / GST-NFATc2 interaction; test: GST-NFATc2 pull-down competition assay; format: binding; conditions: HEK 293T cells transfected with FLAG–CNA (2–389); soluble extracts with GST–NFATc2 beads 60 min at 4°C; increasing peptide concentrations (Fig 6c)
Description: (§1) In GST-RCAN3 pull-down competition assays, HEK 293T cells were lysed in co-immunoprecipitation buffer (50 mM Tris–HCl, pH 7.5, 100 mM NaCl, 2 mM CaCl2, 5 mM MgCl2, 1% IGEPAL, 1 mM DTT, 2 mM PMSF and protease and phosphatase inhibitor cocktails) and the CNA- and the RCAN3-derived peptides containing a PxIxIT sequence were added to the extracts at the indicated concentrations for 30 min. Then, the soluble extracts were incubated with GST–RCAN3 bound to Glutathione Sepharose beads for 90 min at 4°C. After extensive washing, co-precipitated proteins were eluted by resuspension in 2× Laemmli buffer and boiled for 10 min. For GST–NFATc2 pull-down competition assays, HEK 293T cells transfected with FLAG–CNA (2–389) were lysed in a buffer containing 50 mM Tris–HCl, pH 8, 100 mM NaCl, 1.5 mM CaCl2, 6 mM MgCl2, 0.2% TX-100, 1 mM PMSF and protease and phosphatase inhibitor cocktails. Soluble extracts were incubated with GST–NFATc2 bound to Glutathione Sepharose beads for 60 min at 4°C.

[2] = tested on: Endogenous CNA / GST-RCAN3 interaction; test: GST-RCAN3 pull-down competition assay; format: binding; conditions: HEK 293T lysate, peptide at increasing concentrations for 30 min, then GST–RCAN3 beads 90 min at 4°C (Fig 6b)
Description: as §1

[3] = tested on: CNA (human CNAα catalytic domain); test: Fluorescence polarization competition of CF-SPRIEIT-CNA complex; format: binding; conditions: 10 nM CF-labeled SPRIEIT, 10 μM CNA, unlabeled competitor pre-incubated 15 min at increasing concentrations, room temperature, ex 485 nm, em 535 nm, two independent experiments in triplicates (Fig 6a)
Description: Peptides were purchased from the Peptide 2.0 Company (Chantilly, VA) and synthesized as acetylated N-terminal and C-terminal amides for the unlabeled peptides and N-carboxyfluorescein (CF) and C-terminal amide for the labelled peptide. The sequences of the peptides used are the following: […] for the RCAN^183–203 peptide; […] for the cis-CNA derived peptide; and […] for the NFATc2-SPRIEIT (SPRIEIT) peptide. All peptides were resuspended in 100% DMSO at 10 mM. Cyclosporin A (CsA) was obtained from Sandoz. Ionomycin (Io) sodium salt and Phorbol 12-myristate 13-acetate sodium salt (PMA) were obtained from Sigma. The anti-calcineurin A antibody was purchased from BD Biosciences and the anti-Flag M2 antibody was purchased from Sigma. The protease and phosphatase inhibitor cocktails were from Calbiochem.
Expression, purification and isolation of the CNAα domain was performed as previously described. […]
Competition assays were performed as described. […] Unlabeled competitor peptides were pre-incubated with CNA at increasing concentrations for 15 min before adding the fluorescence labeled peptide. Experiments were performed in a OptiPlate black 384-well-flat-bottom plates (PerkinElmer Life Sciences, Waltham, MA) and measured using a Wallac VICTOR (TM) X5 2030 Multilabel Reader (PerkinElmer Life Sciences) with excitation and emission wavelengths of 485 nm and 535 nm respectively. […]

[4] = tested on: Endogenous CN in HEK 293T cells; test: Inhibition of endogenous CN activity by CsA in NFATc-luciferase reporter assay; format: cell-based; conditions: 1 μM CsA, 30 min before stimulation with Io/PMA/Ca^2+ for 6 hours
Description: Flag-hCNAα mutants were performed by PCR using CN specific primers (Table 2). ΔNIR mutant lacks the CNA PXIXIT binding region VMNIR ranging from amino acids 328 to 332. All Flag-CNA constructs bear the Y341F mutation to achieve CsA resistance unless for the specified wt. Luciferase gene assays were performed in HEK 293T cells transfected with 100 ng of 3xNFAT-luc plasmid, 100 ng of pBJ5-mCNB, 1 ng of pRLNull as an internal transfection control and 400 ng of the indicated Flag-hCNAα mutants constructs. Stimulation was achieved by treating the cells with.1 μM ionomycin, 10 nM PMA and 10 mM CaCl2. Endogenous CN activity was abolished by treating cells with 1 μM Cyclosporin A (CsA) 30 min prior to stimulation. FK506 was used as a positive control for CsA-resistant CN. After 6h of cell stimulation, 10 μl of cell extract were analyzed for luciferase gene expression using the Dual-Luciferase Reporter Assay (Promega) following the manufacturer’s protocol on a multiplate luminometer (FLUOstar Optima, BMG). Luciferase units were normalized to densitometric data of 10 μl of cell extract analyzed by western blot. Absence of cell stimulation is shown with a minus symbol (-). Three experiments were performed with triplicates. Stimulation of the Y341F mutant was considered as 100% value.

[5] = target: T1, catalytic domain of human CNAα (residues 2–347) (human, UniProt Q08209-1 2-347); test: fluorescence polarisation; competition: 10 nM CF-labeled SPRIEIT peptide and 10 μM CNA; unlabeled competitor peptides pre-incubated with CNA at increasing concentrations for 15 min; room temperature; conditions: both partners purified
T1 construct: calcineurin catalytic subunit A, alpha isoform, human, NCBI NP_000935.1, catalytic domain residues 2-347; also called CNAα catalytic domain; trans-CNA; source: from the pGEX-6P-1-CNAα plasmid
T1 sequence (Q08209 2-347): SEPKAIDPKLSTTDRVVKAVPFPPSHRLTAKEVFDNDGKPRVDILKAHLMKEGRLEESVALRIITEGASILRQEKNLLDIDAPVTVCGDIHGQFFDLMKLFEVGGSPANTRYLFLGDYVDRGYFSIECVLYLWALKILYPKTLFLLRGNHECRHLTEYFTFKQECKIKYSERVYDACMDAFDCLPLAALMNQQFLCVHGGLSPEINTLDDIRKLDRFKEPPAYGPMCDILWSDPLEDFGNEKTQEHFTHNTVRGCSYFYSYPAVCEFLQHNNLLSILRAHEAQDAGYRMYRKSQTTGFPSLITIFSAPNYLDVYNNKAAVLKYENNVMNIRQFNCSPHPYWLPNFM

Row | Molecule | interference with CN–GST-NFATc2 interaction (pull down) [1] | interference with CN–GST-RCAN3 interaction (pull down) [2] | interference with CN–SPRIEIT peptide interaction (fluorescence polarization competition) [3] | endogenous CN activity after CsA treatment [4] | binding result [5]
1 | NNKAAVLKYE | does not interfere with high affinity interactions | does not interfere with high affinity interactions | does not interfere with high affinity interactions |  | 
2 | KYELHAGTESTPSVVVHVCES [R3^183-203, RCAN3-derived PxIxIT-containing peptide (amino acids 183–203)] | able to disrupt CN interaction with proteins containing a PxIxIT motif | able to disrupt CN interaction with proteins containing a PxIxIT motif | able to disrupt CN interaction with proteins containing a PxIxIT motif |  | 
3 | Cyclosporin A [CsA] |  |  |  | abolished | 
4 | B1 |  |  |  |  | binds
